{"source": "ChEMBL document CHEMBL1201862", "about": "“PubChem BioAssay data set” (2004)", "key": {"[1]": {"experiment": "viability of uninfected HEp-2 cells – cell-based, HTS, cytotoxicity control for RSV inhibitor project, dose response (AID 2410)", "assay_type": "functional", "details": "human respiratory syncytial virus"}, "[2]": {"biological_target": "T1, Microphthalmia-associated transcription factor (Homo sapiens, UniProt O75030)", "T1 sequence (O75030 whole entry)": "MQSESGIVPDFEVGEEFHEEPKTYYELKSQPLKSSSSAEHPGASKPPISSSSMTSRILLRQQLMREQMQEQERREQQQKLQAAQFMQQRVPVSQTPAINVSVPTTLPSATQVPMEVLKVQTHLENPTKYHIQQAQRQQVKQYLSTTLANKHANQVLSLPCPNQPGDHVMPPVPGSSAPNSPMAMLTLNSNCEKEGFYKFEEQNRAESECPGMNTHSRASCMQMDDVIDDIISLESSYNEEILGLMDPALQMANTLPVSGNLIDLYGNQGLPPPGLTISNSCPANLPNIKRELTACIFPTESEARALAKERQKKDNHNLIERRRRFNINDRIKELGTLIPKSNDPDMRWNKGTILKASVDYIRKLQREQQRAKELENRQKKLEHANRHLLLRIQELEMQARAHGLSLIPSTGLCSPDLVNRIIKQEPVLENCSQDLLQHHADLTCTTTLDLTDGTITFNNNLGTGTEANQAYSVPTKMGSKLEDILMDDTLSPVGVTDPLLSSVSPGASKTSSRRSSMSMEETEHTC", "experiment": "reducers of TRPM1 reporter luminescence, concentration series – cell-based, SK-MEL-5, cherry-picked, set 3, MITF inhibitor project, dose response (AID 493073)", "assay_type": "functional"}, "[3]": {"biological_target": "Glucose-6-phosphate 1-dehydrogenase (Homo sapiens, UniProt P11413)", "sequence (P11413 whole entry)": "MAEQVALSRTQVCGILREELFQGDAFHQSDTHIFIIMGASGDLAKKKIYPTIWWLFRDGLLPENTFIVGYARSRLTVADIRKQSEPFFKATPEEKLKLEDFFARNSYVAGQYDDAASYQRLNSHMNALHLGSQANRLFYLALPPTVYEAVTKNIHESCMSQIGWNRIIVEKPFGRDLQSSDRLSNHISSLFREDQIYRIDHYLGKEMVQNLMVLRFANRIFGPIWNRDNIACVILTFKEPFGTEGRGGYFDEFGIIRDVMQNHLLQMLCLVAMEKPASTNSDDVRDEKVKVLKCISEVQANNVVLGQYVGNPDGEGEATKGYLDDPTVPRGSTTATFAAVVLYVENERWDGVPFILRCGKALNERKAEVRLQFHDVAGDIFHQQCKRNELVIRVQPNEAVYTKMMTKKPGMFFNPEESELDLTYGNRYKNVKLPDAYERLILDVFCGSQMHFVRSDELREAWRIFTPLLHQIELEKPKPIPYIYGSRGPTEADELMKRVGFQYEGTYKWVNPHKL", "experiment": "inhibition of Homo sapiens G6PD, dose series – biochemical, fluorescence, selectivity assay for P. falciparum G6PD inhibitor project, dose response (AID 504792)", "assay_type": "functional"}, "[4]": {"biological_target": "DNA dC->dU-editing enzyme APOBEC-3G (Homo sapiens, UniProt Q9HC16)", "sequence (Q9HC16 whole entry)": "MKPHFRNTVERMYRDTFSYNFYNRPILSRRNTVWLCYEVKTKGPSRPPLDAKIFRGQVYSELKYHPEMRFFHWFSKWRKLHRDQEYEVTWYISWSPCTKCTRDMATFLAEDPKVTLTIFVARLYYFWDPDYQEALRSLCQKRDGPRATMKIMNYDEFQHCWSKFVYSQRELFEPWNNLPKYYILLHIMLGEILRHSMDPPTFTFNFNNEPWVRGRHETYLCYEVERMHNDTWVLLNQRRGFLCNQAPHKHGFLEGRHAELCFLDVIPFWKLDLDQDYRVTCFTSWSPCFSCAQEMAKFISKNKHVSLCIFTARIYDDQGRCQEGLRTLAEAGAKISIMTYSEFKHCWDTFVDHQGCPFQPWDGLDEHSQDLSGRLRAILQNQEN", "experiment": "Dose Response confirmation of small molecule APOBEC3G DNA Deaminase Inhibitors via a fluorescence-based single-stranded DNA deaminase assay. [Related pubchem assays (depositor defined):AID493012, AID493028]", "assay_type": "functional"}, "Fatty acid synthase [5]": {"biological_target": "T2, Fatty acid synthase (Homo sapiens, UniProt P49327)", "T2 sequence (P49327 whole entry)": "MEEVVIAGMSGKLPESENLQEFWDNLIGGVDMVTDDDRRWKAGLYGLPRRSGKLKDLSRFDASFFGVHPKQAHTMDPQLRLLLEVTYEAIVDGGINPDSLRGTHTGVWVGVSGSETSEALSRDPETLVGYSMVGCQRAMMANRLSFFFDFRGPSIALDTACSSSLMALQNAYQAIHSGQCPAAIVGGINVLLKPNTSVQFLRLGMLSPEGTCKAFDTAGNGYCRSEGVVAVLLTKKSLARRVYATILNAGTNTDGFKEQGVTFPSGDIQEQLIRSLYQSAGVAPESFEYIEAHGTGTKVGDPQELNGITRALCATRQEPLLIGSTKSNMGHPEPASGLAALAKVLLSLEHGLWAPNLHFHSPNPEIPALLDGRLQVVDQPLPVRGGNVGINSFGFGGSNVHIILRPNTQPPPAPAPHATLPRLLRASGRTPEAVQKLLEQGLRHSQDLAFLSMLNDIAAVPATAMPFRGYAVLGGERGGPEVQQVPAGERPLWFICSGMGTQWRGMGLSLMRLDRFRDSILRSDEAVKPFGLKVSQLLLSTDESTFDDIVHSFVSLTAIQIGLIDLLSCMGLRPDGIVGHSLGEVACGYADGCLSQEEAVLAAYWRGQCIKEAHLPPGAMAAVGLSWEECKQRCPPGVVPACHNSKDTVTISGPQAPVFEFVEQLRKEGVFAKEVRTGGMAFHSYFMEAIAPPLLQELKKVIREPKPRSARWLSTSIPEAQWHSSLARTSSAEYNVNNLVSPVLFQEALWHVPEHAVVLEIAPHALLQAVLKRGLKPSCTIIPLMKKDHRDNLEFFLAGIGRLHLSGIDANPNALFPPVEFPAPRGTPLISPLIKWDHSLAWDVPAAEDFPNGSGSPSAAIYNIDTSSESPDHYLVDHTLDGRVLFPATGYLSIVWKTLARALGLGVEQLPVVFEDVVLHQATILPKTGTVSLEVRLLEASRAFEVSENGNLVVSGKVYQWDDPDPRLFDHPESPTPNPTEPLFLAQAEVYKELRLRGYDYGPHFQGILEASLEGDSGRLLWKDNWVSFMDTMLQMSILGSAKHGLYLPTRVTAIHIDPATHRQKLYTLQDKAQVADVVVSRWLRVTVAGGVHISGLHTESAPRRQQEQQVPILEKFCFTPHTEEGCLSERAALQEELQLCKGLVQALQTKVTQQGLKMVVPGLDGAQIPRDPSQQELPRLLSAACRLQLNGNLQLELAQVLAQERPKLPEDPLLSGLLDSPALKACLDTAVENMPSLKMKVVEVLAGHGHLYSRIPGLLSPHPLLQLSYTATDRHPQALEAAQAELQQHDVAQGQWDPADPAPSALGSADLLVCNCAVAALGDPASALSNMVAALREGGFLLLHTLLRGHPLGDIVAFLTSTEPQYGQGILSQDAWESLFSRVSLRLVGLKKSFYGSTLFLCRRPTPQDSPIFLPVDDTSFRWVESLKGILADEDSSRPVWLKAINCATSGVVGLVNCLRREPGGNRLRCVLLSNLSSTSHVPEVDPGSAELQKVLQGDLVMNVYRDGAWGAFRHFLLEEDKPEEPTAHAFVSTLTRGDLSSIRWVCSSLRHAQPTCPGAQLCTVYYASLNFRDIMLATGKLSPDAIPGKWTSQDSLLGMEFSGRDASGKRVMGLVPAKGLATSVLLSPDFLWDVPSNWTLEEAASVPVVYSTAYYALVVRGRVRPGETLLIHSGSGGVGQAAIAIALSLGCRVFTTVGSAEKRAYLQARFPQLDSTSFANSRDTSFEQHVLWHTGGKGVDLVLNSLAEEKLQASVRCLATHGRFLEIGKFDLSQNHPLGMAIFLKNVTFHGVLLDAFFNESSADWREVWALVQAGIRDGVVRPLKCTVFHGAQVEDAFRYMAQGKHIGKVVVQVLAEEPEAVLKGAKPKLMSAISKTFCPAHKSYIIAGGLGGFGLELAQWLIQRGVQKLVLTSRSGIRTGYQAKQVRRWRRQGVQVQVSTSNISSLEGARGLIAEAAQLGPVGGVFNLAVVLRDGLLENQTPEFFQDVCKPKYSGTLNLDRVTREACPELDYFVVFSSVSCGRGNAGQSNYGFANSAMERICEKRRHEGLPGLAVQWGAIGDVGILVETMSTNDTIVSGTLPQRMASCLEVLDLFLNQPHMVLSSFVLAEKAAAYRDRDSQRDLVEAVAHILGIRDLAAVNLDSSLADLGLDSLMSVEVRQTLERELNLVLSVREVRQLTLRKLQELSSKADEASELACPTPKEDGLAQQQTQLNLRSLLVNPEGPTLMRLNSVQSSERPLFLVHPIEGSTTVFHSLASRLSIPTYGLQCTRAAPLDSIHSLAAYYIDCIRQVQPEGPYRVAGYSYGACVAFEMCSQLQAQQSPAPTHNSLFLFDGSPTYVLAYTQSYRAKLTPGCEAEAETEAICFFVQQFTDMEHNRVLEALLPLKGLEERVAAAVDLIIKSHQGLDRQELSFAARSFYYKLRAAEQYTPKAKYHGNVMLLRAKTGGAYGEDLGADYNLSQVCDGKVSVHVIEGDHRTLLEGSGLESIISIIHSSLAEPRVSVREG", "experiment": "inhibition of human FAS-TE enzyme activity – biochemical, endpoint fluorescence intensity, uHTS hits, dose response (AID 624327);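 further: fluorescence from hydrolysis of an O-methyl fluorescein acyl ester substrate by the enzyme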", "assay_type": "functional"}, "Fatty acid synthase [6]": {"biological_target": "T2, Fatty acid synthase", "experiment": "inhibition of human FAS-TE enzyme activity – biochemical, kinetic fluorescence intensity, dose response (AID 624326);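 further: rate of fluorescence rise from hydrolysis of a fluorogenic O-methyl fluorescein ester substrate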", "assay_type": "functional"}, "[7]": {"experiment": "P. falciparum Dd2 growth inhibitors, dose response, SYBR Green, cherry-picked samples (AID 1159567)", "assay_type": "functional, cell-based"}, "[8]": {"experiment": "toxicity to human hepatoma HepG2 cells – cell-based, cherry-picked samples, cytotoxicity control, dose response (AID 1159577)", "assay_type": "functional"}, "[9]": {"experiment": "blockers of HIV-1 ZM109 envelope-driven cell-cell fusion – HeLa effector, CEM target cells, luciferase, cherry-pick, dose response (AID 652058)", "assay_type": "functional, cell-based"}, "[10]": {"experiment": "NIH-3T3 fibroblast cytotoxicity, dose response, cytotoxicity control, cell-based, fluorescence, Alamar Blue, secondary assay (AID 2327);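 further: NIH-3T3 mouse fibroblasts cultured with fluconazole at 8 µg/mL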", "assay_type": "functional"}, "[11]": {"experiment": "luciferase reporter signal suppression in cells – H4 neuroglioma cells, luminescence, dose response (AID 1990)", "assay_type": "functional, cell-based"}, "[12]": {"experiment": "Luminescence Cell-Based Dose Response HTS to Identify Inhibitors of 5'UTR Stem-Loop Driven Prion Protein mRNA Translation in H4 Neuroglioblastoma Cells. [Related pubchem assays: 1827 (Project Summary), 1813 (Primary HTS)]", "assay_type": "functional"}, "[13]": {"experiment": "alpha-synuclein stem-loop luciferase translation blockers – H4 neuroglioma cells, luminescence, confirmation (AID 1988)", "assay_type": "functional, cell-based"}, "[14]": {"experiment": "fluconazole-exposed Candida albicans growth modulators – fluorescence, retest, confirmation (AID 2467)", "assay_type": "functional, cell-based"}, "[15]": {"experiment": "Trypanosoma cruzi growth suppression in host cells – NIH3T3 host cells, beta-gal luminescence, confirmation (AID 2044);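 further: intracellular parasites grown in NIH/3T3 mouse fibroblasts as host cells; luminescent beta-galactosidase reporter signal from transgenic T. cruzi replicating inside host cells; inhibitors lower the luminescence signal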", "assay_type": "functional, cell-based"}, "[16]": {"experiment": "viability of PTEN-deleted HCT116 cells – cell-based, HCT116 PTEN knockout, dose response (AID 1047);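 further: HCT116 colon tumor cells with PTEN knocked out; cells exposed to compound for 60 hours before readout; potency for loss of cell viability measured by luminescence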", "assay_type": "functional"}, "[17]": {"experiment": "NIH3T3 cell viability loss – ATP luminescence, mouse fibroblasts, counter-screen, dose response (AID 2010);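 further: cells exposed to compound for about 90 hours before reading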", "assay_type": "functional, cell-based"}, "[18]": {"experiment": "viability of HCT116 lacking mutant beta-catenin – cell-based, human colon tumor, dose response (AID 1045);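 further: HCT116 colon tumor cells with beta catenin knocked out; cells exposed to compound for 60 hours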", "assay_type": "functional"}, "Nonstructural protein 1": {"biological_target": "Nonstructural protein 1 (Influenza A virus, UniProt Q194T2)", "sequence (Q194T2 whole entry)": "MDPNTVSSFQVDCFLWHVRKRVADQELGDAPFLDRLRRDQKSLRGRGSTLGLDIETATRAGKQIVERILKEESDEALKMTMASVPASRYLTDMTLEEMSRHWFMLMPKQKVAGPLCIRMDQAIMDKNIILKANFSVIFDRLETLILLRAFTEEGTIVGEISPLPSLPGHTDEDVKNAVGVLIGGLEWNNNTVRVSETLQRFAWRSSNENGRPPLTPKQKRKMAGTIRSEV", "assay_type": "functional, Influenza A virus (A/California/07/2009(H1N1))"}, "[19]": {"biological_target": "T3, Replicative DNA helicase DnaB (Mycobacterium tuberculosis, UniProt P9WMR3)", "T3 sequence (P9WMR3 whole entry)": "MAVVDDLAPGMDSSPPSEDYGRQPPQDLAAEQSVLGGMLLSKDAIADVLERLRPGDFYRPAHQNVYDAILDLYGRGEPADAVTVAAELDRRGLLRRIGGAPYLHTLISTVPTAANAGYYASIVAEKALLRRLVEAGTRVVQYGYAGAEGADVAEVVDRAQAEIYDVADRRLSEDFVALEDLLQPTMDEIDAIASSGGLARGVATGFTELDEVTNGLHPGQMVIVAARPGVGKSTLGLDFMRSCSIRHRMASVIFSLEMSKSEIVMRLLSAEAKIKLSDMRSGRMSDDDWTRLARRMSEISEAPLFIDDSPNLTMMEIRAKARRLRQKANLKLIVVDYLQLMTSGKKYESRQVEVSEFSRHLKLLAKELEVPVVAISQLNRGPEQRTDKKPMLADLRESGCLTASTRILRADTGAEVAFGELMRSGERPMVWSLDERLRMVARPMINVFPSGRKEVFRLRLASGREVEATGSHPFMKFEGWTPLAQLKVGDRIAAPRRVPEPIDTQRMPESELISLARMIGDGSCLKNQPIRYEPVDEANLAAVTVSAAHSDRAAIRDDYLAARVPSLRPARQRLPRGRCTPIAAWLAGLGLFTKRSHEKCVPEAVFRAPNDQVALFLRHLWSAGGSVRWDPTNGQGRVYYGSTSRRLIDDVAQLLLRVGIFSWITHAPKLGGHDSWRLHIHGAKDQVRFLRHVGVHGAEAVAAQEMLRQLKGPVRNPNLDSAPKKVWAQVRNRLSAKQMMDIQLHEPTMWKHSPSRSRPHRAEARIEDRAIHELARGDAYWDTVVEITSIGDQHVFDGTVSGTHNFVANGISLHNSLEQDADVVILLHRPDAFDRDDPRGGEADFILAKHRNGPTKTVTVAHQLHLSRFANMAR", "experiment": "DnaB intein splicing inhibitors, dose response, biochemical, cell-free fluorescence (AID 449749)", "assay_type": "functional"}, "Protein RecA": {"biological_target": "T4, Protein RecA (Mycobacterium tuberculosis, UniProt P9WHJ3)", "T4 sequence (P9WHJ3 whole entry)": "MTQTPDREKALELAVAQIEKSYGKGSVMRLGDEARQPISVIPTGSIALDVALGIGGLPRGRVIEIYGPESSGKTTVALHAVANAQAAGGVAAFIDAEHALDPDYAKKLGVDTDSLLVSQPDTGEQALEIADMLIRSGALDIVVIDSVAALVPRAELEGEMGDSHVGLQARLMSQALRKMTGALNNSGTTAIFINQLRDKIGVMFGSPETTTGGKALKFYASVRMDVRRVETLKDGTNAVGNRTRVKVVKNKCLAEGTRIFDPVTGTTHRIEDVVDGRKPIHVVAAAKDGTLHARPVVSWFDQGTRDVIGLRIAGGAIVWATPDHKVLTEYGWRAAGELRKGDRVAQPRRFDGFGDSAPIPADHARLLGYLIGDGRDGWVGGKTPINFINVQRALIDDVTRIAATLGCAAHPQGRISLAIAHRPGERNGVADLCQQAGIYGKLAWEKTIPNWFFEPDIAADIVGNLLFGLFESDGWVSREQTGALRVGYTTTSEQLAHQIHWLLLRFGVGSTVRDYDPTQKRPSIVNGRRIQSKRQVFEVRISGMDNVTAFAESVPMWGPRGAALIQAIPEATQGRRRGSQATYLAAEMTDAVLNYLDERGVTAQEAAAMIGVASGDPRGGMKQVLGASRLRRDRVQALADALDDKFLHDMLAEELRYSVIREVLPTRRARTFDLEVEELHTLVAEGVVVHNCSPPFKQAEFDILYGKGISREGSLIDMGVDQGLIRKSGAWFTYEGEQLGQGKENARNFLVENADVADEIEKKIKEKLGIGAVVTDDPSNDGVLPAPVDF", "experiment": "Fluorescence Cell-Free Homogeneous Dose Retest to Identify Inhibitors of RecA-Intein Splicing Activity. [Related pubchem assays (depositor defined):AID2097, AID2223, AID489010, AID492950]", "assay_type": "functional"}, "[20]": {"experiment": "blockers of HIV-1 envelope-mediated cell-cell fusion – cherry-pick, dose response (AID 652057)", "assay_type": "functional, cell-based"}, "[21]": {"experiment": "HIV-1 AD8 envelope cell-cell fusion blockers – cherry-pick, dose response (AID 652062);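 further: luciferase signal from cell-cell fusion driven by HIV-1 clade B AD8 Env; potency is for inhibitors of fusion seen as a drop in luminescence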", "assay_type": "functional, cell-based"}, "cells [22]": {"experiment": "cells", "assay_type": "functional, cell-based"}, "cells [23]": {"experiment": "cells", "assay_type": "functional, cell-based", "remark": "listed apart in the source"}, "[24]": {"experiment": "THP-1 cell cytotoxicity, dose response, cytotoxicity control for non-replicating M. tuberculosis project (AID 489025)", "assay_type": "functional"}, "[25]": {"experiment": "Vero E6 cell cytotoxicity, dose response, cytotoxicity control for non-replicating M. tuberculosis project, secondary assay (AID 492998)", "assay_type": "functional, VeroE6", "details": "Vero C1008"}, "cells [26]": {"experiment": "cells", "assay_type": "functional"}}, "note": "Calls of active or inactive are those of the source."}
{"smiles": "C=CCSC(=S)NC1CCS(=O)(=O)C1", "note": "(stereo not given)", "values": [{"measurement": "CC50", "setting": "[1]", "value": "24.6 µM (active)"}, {"measurement": "AC50", "setting": "[2]", "value": "20.7 µM (active)"}]}
{"smiles": "COC(=O)[C@H](C)NC(=O)c1cc2c3ccccc3nc-2c[nH]1", "values": [{"measurement": "IC50", "setting": "[3]", "value": "> 80 µM (inactive)"}, {"measurement": "IC50", "setting": "[4]", "value": "25.6 µM (active)"}]}
{"smiles": "O=C(COc1ccc(S(=O)(=O)N2CCCCC2)cc1)Nc1ccccc1F", "values": [{"measurement": "IC50", "setting": "Fatty acid synthase [5]", "value": "16 µM (active)"}, {"measurement": "IC50", "setting": "Fatty acid synthase [6]", "value": "17.2 µM (active)"}]}
{"smiles": "C[C@@H]1CN([C@H](C)CO)C(=O)c2c(c3ccccc3n2C)-c2ccccc2CO[C@@H]1CN(C)Cc1cccc(O)c1", "values": [{"measurement": "AC50", "setting": "[7]", "value": "4.04 µM (active)"}, {"measurement": "AC50", "setting": "[8]", "value": "17.2 µM (active)"}]}
{"smiles": "C[C@@H]1CN([C@@H](C)CO)S(=O)(=O)c2ccc(-c3ccccc3)cc2O[C@H]1CN(C)S(C)(=O)=O", "values": [{"measurement": "AC50", "setting": "[9]", "value": "44 µM (active)"}]}
{"smiles": "CC(=O)N(Cc1ccc(F)cc1)C1=C(NCc2ccccc2)C(=O)c2ccccc2C1=O", "values": [{"measurement": "EC50", "setting": "[10]", "value": "4.92 µM (inconclusive)"}, {"measurement": "EC50", "setting": "[11]", "value": "8.34 µM (active)"}, {"measurement": "EC50", "setting": "[12]", "value": "> 120 µM (not active)"}, {"measurement": "EC50", "setting": "[13]", "value": "8.2 µM (active)"}, {"measurement": "EC50", "setting": "[14]", "value": "0.708 µM (active)"}, {"measurement": "EC50", "setting": "[15]", "value": "0.317 µM (active)"}, {"measurement": "EC50", "setting": "[16]", "value": "0.54 µM (active)"}, {"measurement": "EC50", "setting": "[17]", "value": "7.47 µM (active)"}, {"measurement": "EC50", "setting": "[18]", "value": "0.444 µM (active)"}, {"measurement": "IC50", "setting": "Nonstructural protein 1", "value": "35.3 µM (active)"}, {"measurement": "AC50", "setting": "[19]", "value": "5.17 µM (active)"}, {"measurement": "EC50", "setting": "Protein RecA", "value": "0.776 µM (active)"}]}
{"smiles": "COc1cccc(S(=O)(=O)N2CCC3(CC2)CN(C(=O)Nc2cccc(F)c2)[C@@H](CO)c2[nH]c4cc(OC)ccc4c23)c1", "values": [{"measurement": "AC50", "setting": "[20]", "value": "6.21 µM (active)"}, {"measurement": "AC50", "setting": "[9]", "value": "6.68 µM (active)"}, {"measurement": "AC50", "setting": "[21]", "value": "8.03 µM (active)"}]}
{"smiles": "COc1cccc2sc(N3CCN(C(=O)c4ccc([N+](=O)[O-])o4)CC3)nc12", "values": [{"measurement": "EC50", "setting": "cells [22]", "value": "> 350 µM (not active)"}, {"measurement": "EC50", "setting": "cells [23]", "value": "> 350 µM (not active)"}, {"measurement": "CC50", "setting": "[24]", "value": "36.5 µM (active)"}, {"measurement": "CC50", "setting": "[25]", "value": "18.9 µM (active)"}, {"measurement": "AC50", "setting": "[2]", "value": "7.03 µM (active)"}, {"measurement": "IC50", "setting": "cells [26]", "value": "< 0.1 µM (active)"}]}
